Measured values as given in patent publication US6737383B1, “Herbicidal oxadiazolidines” (priority 1999, dated 2004).

Legend:
[1] = tested on: velvetleaf; test: Test B pre/postemergence velvetleaf; assay type: in vivo, Abutilon theophrasti
How it was run: (§1)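 Test chemicals in a non-phytotoxic solvent mixture with surfactant were sprayed preemergence onto planted seeds and postemergence onto plants 2 to 18 cm tall (1- to 4-leaf stage). After twelve to sixteen days in a greenhouse, injury was visually rated against untreated controls from 0 (no effect) to 10 (complete control).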

[2] = tested on: pigweed; test: Test B pre/postemergence pigweed; assay type: in vivo, Amaranthus retroflexus
How it was run: as §1

[3] = tested on: crabgrass; test: Test B pre/postemergence crabgrass; assay type: in vivo, Digitaria sanguinalis
How it was run: as §1

[4] = tested on: purple nutsedge; test: Test B pre/postemergence purple nutsedge; assay type: in vivo, Cyperus rotundus
How it was run: as §1

[5] = tested on: giant foxtail; test: Test B pre/postemergence giant foxtail; assay type: in vivo, Setaria faberii
How it was run: as §1

[6] = tested on: rice; test: Test B flood test rice; assay type: in vivo, Oryza sativa; conditions: for Rice plant response rating: Postemergence section (flood test species)
How it was run: (§2)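 Flood test on plants grown to the 2-leaf stage; treated plants kept in greenhouse twelve to sixteen days, then visually rated against controls on a 0 (no effect) to 10 (complete control) scale.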

[7] = tested on: duck salad; test: Test B flood test duck salad; assay type: in vivo, Heteranthera limosa
How it was run: as §2

[8] = tested on: bamyardgrass; test: Test B flood test barnyardgrass; assay type: in vivo, Echinochloa crus-galli
How it was run: as §2

[9] = tested on: cocklebur; test: Test B pre/postemergence cocklebur; assay type: in vivo, Xanthium strumarium
How it was run: as §1

[10] = tested on: wild oat; test: Test B pre/postemergence wild oat; assay type: in vivo, Avena fatua
How it was run: as §1

[11] = tested on: wheat; test: Test B pre/postemergence wheat; assay type: in vivo, Triticum aestivum
How it was run: as §1

[12] = tested on: rape; test: Test B pre/postemergence rape; assay type: in vivo, Brassica napus
How it was run: as §1

[13] = tested on: morningglory; test: Test B pre/postemergence morningglory; assay type: in vivo, Ipomoea hederacea
How it was run: as §1

[14] = tested on: sugar beet; test: Test B pre/postemergence sugar beet; assay type: in vivo, Beta vulgaris
How it was run: as §1

[15] = tested on: soybean; test: Test B pre/postemergence soybean; assay type: in vivo, Glycine max
How it was run: as §1

[16] = tested on: corn; test: Test B pre/postemergence corn; assay type: in vivo, Zea mays
How it was run: as §1

[17] = Postemergence, Rate 250 g/ha, scale 0 to 10, 0 is no effect, 10 is complete control
[18] = Postemergence, Rate 500 g/ha, scale of 0 to 10 where 0 is no effect and 10 is complete control
[19] = Preemergence, Rate 62 g/ha, scale 0 to 10 (0 no effect, 10 complete control)
[20] = Preemergence, Rate 125 g/ha, scale of 0 to 10 where 0 is no effect and 10 is complete control
[21] = Preemergence, Rate 250 g/ha, scale 0 to 10, 0 is no effect, 10 is complete control
[22] = Preemergence, Rate 500 g/ha, scale 0 to 10, 0 is no effect, 10 is complete control
[23] = Rate 125 g/ha, Postemergence, scale 0 to 10, 0 is no effect, 10 is complete control
[24] = Rate 62 g/ha, Postemergence, scale of 0 to 10 where 0 is no effect and 10 is complete control
[25] = flood test species, listed under Postemergence, Rate 250 g/ha, scale 0 to 10, 0 is no effect, 10 is complete control
[26] = Postemergence section (flood test species), Rate 500 g/ha, scale of 0 to 10 where 0 is no effect and 10 is complete control
[27] = Rate 62 g/ha, Postemergence (flood test species), scale of 0 to 10 where 0 is no effect and 10 is complete control
[28] = Rate 125 g/ha, Postemergence section (flood test species), scale 0 to 10, 0 is no effect, 10 is complete control

CC(C)N(C(=O)n1oc(=O)n(CCl)c1=O)c1ccc(Cl)cc1 [Compound 422]
0: Plant response rating, Velvetleaf [1, 17] | Velvetleaf plant response rating [1, 18] | Plant response rating, Velvetleaf [1, 19] | Plant response rating, Velvetleaf [1, 20] | Velvetleaf plant response rating [1, 21] | Velvetleaf plant response rating [1, 22] | Velvetleaf plant response rating [1, 23] | Plant response rating, Redroot pigweed [2, 17] | Redroot pigweed plant response rating [2, 18] | Plant response rating, Redroot pigweed [2, 19] | Plant response rating, Redroot pigweed [2, 20] | Redroot pigweed plant response rating [2, 21] | Redroot pigweed plant response rating [2, 22] | Redroot pigweed plant response rating [2, 23] | Plant response rating, Crabgrass [3, 17] | Crabgrass plant response rating [3, 18] | Plant response rating, Crabgrass [3, 19] | Plant response rating, Crabgrass [3, 20] | Crabgrass plant response rating [3, 21] | Crabgrass plant response rating [3, 22] | Crabgrass plant response rating [3, 24] | Crabgrass plant response rating [3, 23] | Plant response rating, Nutsedge [4, 17] | Nutsedge plant response rating [4, 18] | Plant response rating, Nutsedge [4, 19] | Plant response rating, Nutsedge [4, 20] | Nutsedge plant response rating [4, 21] | Nutsedge plant response rating [4, 22] | Nutsedge plant response rating [4, 23] | Plant response rating, Giant foxtail [5, 17] | Giant foxtail plant response rating [5, 18] | Plant response rating, Giant foxtail [5, 19] | Plant response rating, Giant foxtail [5, 20] | Giant foxtail plant response rating [5, 21] | Giant foxtail plant response rating [5, 22] | Giant foxtail plant response rating [5, 24] | Giant foxtail plant response rating [5, 23] | Rice plant response rating ([6]; Rate 500 g/ha, scale of 0 to 10 where 0 is no effect and 10 is complete control) | Rice plant response rating ([6]; Rate 125 g/ha, scale 0 to 10, 0 is no effect, 10 is complete control) | Plant response rating, Rice [6, 25] | Ducksalad plant response rating [7, 26] | Ducksalad plant response rating [7, 27] | Ducksalad plant response rating [7, 28] | Plant response rating, Ducksalad [7, 25] | Barnyardgrass plant response rating [8, 26] | Barnyardgrass plant response rating [8, 27] | Barnyardgrass plant response rating [8, 28] | Plant response rating, Barnyardgrass [8, 25] | Plant response rating, Cocklebur [9, 17] | Cocklebur plant response rating [9, 18] | Plant response rating, Cocklebur [9, 19] | Plant response rating, Cocklebur [9, 20] | Cocklebur plant response rating [9, 21] | Cocklebur plant response rating [9, 22] | Cocklebur plant response rating [9, 24] | Cocklebur plant response rating [9, 23] | Wild oats plant response rating [10, 18] | Plant response rating, Wild oats [10, 19] | Plant response rating, Wild oats [10, 20] | Wild oats plant response rating [10, 21] | Wild oats plant response rating [10, 23] | Wheat plant response rating [11, 18] | Plant response rating, Wheat [11, 19] | Plant response rating, Wheat [11, 20] | Wheat plant response rating [11, 21] | Wheat plant response rating [11, 22] | Wheat plant response rating [11, 23] | Plant response rating, Rape [12, 17] | Rape plant response rating [12, 18] | Plant response rating, Rape [12, 19] | Plant response rating, Rape [12, 20] | Rape plant response rating [12, 21] | Rape plant response rating [12, 22] | Rape plant response rating [12, 23] | Plant response rating, Morningglory [13, 17] | Morningglory plant response rating [13, 18] | Plant response rating, Morningglory [13, 19] | Plant response rating, Morningglory [13, 20] | Morningglory plant response rating [13, 21] | Morningglory plant response rating [13, 22] | Morningglory plant response rating [13, 23] | Plant response rating, Sugarbeets [14, 17] | Sugarbeets plant response rating [14, 18] | Plant response rating, Sugarbeets [14, 19] | Plant response rating, Sugarbeets [14, 20] | Sugarbeets plant response rating [14, 21] | Sugarbeets plant response rating [14, 22] | Sugarbeets plant response rating [14, 23] | Plant response rating, Soybean [15, 19] | Plant response rating, Soybean [15, 20] | Soybean plant response rating [15, 21] | Soybean plant response rating [15, 22] | Plant response rating, Corn [16, 17] | Corn plant response rating [16, 18] | Plant response rating, Corn [16, 19] | Plant response rating, Corn [16, 20] | Corn plant response rating [16, 21] | Corn plant response rating [16, 22] | Corn plant response rating [16, 24] | Corn plant response rating [16, 23]
4: Soybean plant response rating [15, 18]
3: Wild oats plant response rating [10, 22] | Plant response rating, Soybean [15, 17] | Soybean plant response rating [15, 23]
